Six molecules from patent publication US20040214784A1, “Permeable, water soluble, non-irritating prodrugs of chemotherapeutic agents with oxaalkanoic acids” (UNIVERSITY OF KENTUCKY RESEARCH FOUNDATION, priority 1999, published 2004) can be followed below.

Molecules are shown by their SMILES.

Series [1] can be described thus: Half-lives of hydrolysis of the prodrugs in human serum. The conditions noted are these: Half-life of hydrolysis.
Series [2] in a line: Half-lives of hydrolysis of the prodrugs in phosphate buffer at pH 7.4. The conditions noted are these: pH 7.4, Half-life of hydrolysis.
A short description of the next series: physchem. The conditions noted are these: buffer, pH 7.4, Half-life of hydrolysis.
The mark [3] stands for this setting: Serum (to mono), hydrolysis to mono.
[4] abbreviates: Buffer (to mono), phosphate buffer at ph 7.4, hydrolysis to mono.

As for `O=C(COCCOCCO)Nc1ccn(C2CCC(COC(=O)COCCOCCO)O2)c(=O)n1` (stereo not drawn), the half-life is 0.0833 ± 0.0167 h in series [1] (setting [3]) and 20 h in series [2] (setting [4]).

The molecule `COCCOCC(=O)OCC(=O)[C@@]12OC(C)(C)O[C@@H]1CC1C3CCC4=CC(=O)C=CC4(C)[C@@]3(F)[C@@H](O)CC12C` (stereo partly drawn) had a half-life in “physchem” of 15 h. `COCCOCCOCC(=O)OCC(=O)[C@@]12OC(C)(C)O[C@@H]1CC1C3CCC4=CC(=O)C=CC4(C)[C@@]3(F)[C@@H](O)CC12C` (stereo partly drawn) showed a half-life in “physchem” of 12 h. On to `COCCOCCOCC(=O)OCn1cc(F)c(=O)n(COC(=O)COCCOCCOC)c1=O`, for which the half-life in series [1] (setting [3]) amounted to 0.00833 h; in series [2] (setting [4]) it was 1.47 h. For the molecule `CC1(C)O[C@@H]2CC3C4CCC5=CC(=O)C=CC5(C)[C@@]4(F)[C@@H](O)CC3(C)[C@]2(C(=O)COC(=O)COCC(=O)O)O1` (stereo partly drawn), the half-life in the series “physchem” was 1 h. As for `Nc1nc2c(ncn2COCCOC(=O)COCC(=O)OCCOCn2cnc3c(=O)[nH]c(N)nc32)c(=O)[nH]1`, the half-life in series [1] (Serum, bis to mono) was 4 h; in series [2] (Buffer, bis to mono, phosphate buffer at ph 7.4, bis to mono) it was 10 h.
